Data taken from article PMC11724075, “Small-molecule-induced ERBB4 activation to treat heart failure” (Nature Communications, 2025).
Values joined by “and” are separate entries in the source; they are usually repeats but may differ in a detail not shown here. Identical values can stand only once.

Key:
[1] = tested on: Akt phosphorylation (pAkt/Akt); design: method as in PMID 14654373; settings: cited from earlier work
Erbb4-null mice = experiment: Acute high-dose DOX-induced cardiotoxicity, cTnI ELISA, female Erbb4-null mice; format: in vivo, mouse; design: In vivo DOX experiment in male+female Erbb4-null mice with EF-1 (cTnI): unit not given here
Procedure: (§1) DOX (20 mg/kg; Pfizer, 4222) was administered intraperitoneally once on day 4 to induce cardiotoxicity. On day 7, mice were euthanized, serum samples were collected via the retrobulbar sinus and hearts were excised.
Floxed Erbb4 mice (Erbb4^f/f; C57BL/6N; 129-Erbb4tm1Fej/Mmucd, MMRRC, #010439-UCD) were crossed with CAGGCre-ER^TM mice (Jackson Laboratory, 004682) containing the Tg(CAG-cre/Esr1*)5Amc transgene that expresses Cre recombinase under the control of a chicken beta actin promoter/enhancer coupled to the human cytomegalovirus immediate-early gene enhancer, resulting in expression of tamoxifen-inducible Cre-ERT in most cell types. To induce Cre recombinase-mediated deletion of Erbb4, eleven-week-old female and male iCAGGCre-ER^TM/Erbb4^f/f mice were intraperitoneally injected with tamoxifen (Merck, T5648; 10 mg/kg; in corn oil) daily for 5 consecutive days.
Serum samples were centrifuged for 15 min (1000 × g) at 4 °C and analyzed using a mouse cardiac Troponin I Type 3 ELISA kit (Novus Biologicals, NBP3–00456), according to the manufacturer’s instructions. Briefly, a 96-well microplate was coated with an anti-mouse TNNI3/cTnI primary antibody (Capture Antibody Solution). Standard solution or samples (100 μL) were added to the plate and incubated for 90 min at 37 °C. […]

HCFs = experiment: Bulk RNA sequencing and GSEA of human cardiac fibroblasts; format: cell-based; settings: EF-1 32 µM, 16 h, log2-fold change >0, P adj <0.05
Procedure: iAMs were seeded at a density of 6 ×10^6 cells/mL in differentiation medium in 75-cm^2 cell culture flasks (Greiner Bio-One, 658175) and incubated for 9 days (d0 = day of seeding). HCF were seeded at a density of 3 × 10^6 cells/mL in fibroblast medium in 75-cm^2 cell culture flasks. […] Next, cells were lysed using 350 µL buffer RLT (Qiagen) supplemented with β-mercaptoethanol (100:1; Merck, 444203). Total RNA was isolated using the RNeasy Micro Kit (Qiagen, 74104) according to the manufacturer’s protocol, with an extra step of DNase digestion. The concentration and quality of RNA were determined using a Qubit fluorometer (Thermo Fisher Scientific) and 2100 Agilent BioAnalyzer (Agilent Technologies), respectively. Samples with an RNA integrity number >7 were used for library preparation. Sequencing libraries were prepared by Genewiz/Azenta (Leipzig) on cDNA prepared from polyadenylated mRNA. Libraries were sequenced using a NovaSeq 6000 (Illumina) with a read length of 2 ×150 bp.
Gene expression was quantified at the transcript level using Salmon (v1.10.0)[60], with the validatMappings and -gcBias parameters switched on, to the Rnor_6.0 or GRCh38 transcriptome. […] Functional enrichment of DEGs was determined using a hypergeometric test against the Gene Ontology database by using the ClueGO (v2.5.7)[64] module of Cytoscape (v3.9.1)[65] with Benjamini–Hochberg adjusted (FDR) P < 0.05. […]

[2] = tested on: mouse model of DOX-induced acute cardiac toxicity; experiment: Acute high-dose DOX-induced cardiotoxicity, cTnI ELISA, wild type mice; format: in vivo; design: In vivo DOX experiment in female wild type mice with EF-1 (cTnI) / In vivo DOX experiment in fmale wild type mice with EF-1 (cTnI): unit not given here
Procedure: as §1
Serum samples were centrifuged for 15 min (1000 × g) at 4 °C and analyzed using a mouse cardiac Troponin I Type 3 ELISA kit (Novus Biologicals, NBP3–00456), according to the manufacturer’s instructions. Briefly, a 96-well microplate was coated with an anti-mouse TNNI3/cTnI primary antibody (Capture Antibody Solution). Standard solution or samples (100 μL) were added to the plate and incubated for 90 min at 37 °C. A biotinylated anti-mouse TNNI3/cTnI detection antibody was added, and the plate was incubated for 1 h at 37 °C followed by 3 washes with Wash Buffer. An avidin–horseradish peroxidase conjugate (Detection Antibody Solution) was then added, and the plate was incubated once more for 30 min at 37 °C. After 3 washes with Wash Buffer, Substrate Reagent was added. Following incubation for 15 min at 37 °C, the enzymatic reaction was terminated by the addition of Stop Solution. Sample optical densities at 450 nm were converted to […] concentrations of mouse TNNI3/cTnI using a calibration curve.

mouse model of MI = experiment: Mouse model of MI, histology: CSA, capillaries, interstitial fibrosis, scar size; format: in vivo
Procedure: Twelve-week-old female and male Balb/cJ (Charles River, 000651) mice were randomized into either the ctrl or MI group. Mice in the MI group underwent surgical ligation of the LAD, while mice in the ctrl group underwent a sham procedure (n = 8 female mice, n = 10 male mice). Briefly, all mice received an injection of 0.1 mg/kg buprenorphine (Produlab Pharma) before induction of anesthesia with 8% sevoflurane (Zoetis). Anesthesia was maintained with 4.5% sevoflurane and mice were intubated and ventilated. An incision of 15 mm was made on the left side of the thorax and the thoracic cavity was opened at the third intercostal space using blunt forceps. The LAD was permanently ligated with a 8/0 polypropylene monofilament sutures (Ethicon, F1894) after which the thoracic cavity and skin were closed with 6/0 polypropylene monofilament sutures (Ethicon, F1841). and 5/0 polyamide 6 sutures (Ethilon, F2412H), respectively. Mice received another dose of 0.1 mg/kg buprenorphine 6–8 h after the initial dose. Two days after surgery, cardiac ultrasound was performed to exclude mice without successful MI (i.e. displaying hypokinesia in ≥2 out of 5 segments). […] Cardiac ultrasound was performed weekly. After 4 weeks of treatment, mice were euthanized, and hearts were collected.
Hearts were fixed in 4% PFA, paraffin-embedded, and cut into 5-µm sections. Images were acquired with an Olympus BX43 microscope (Olympus Stream Motion Software) or a CELENA® S Digital Imaging System and analyzed with ImageJ 2.14.0 software. Collagen distribution was visualized by Masson’s trichrome staining. Cardiac total fibrosis was expressed as the ratio of positively stained fibrotic area (blue) to the total area and perivascular fibrosis as the ratio of fibrotic area to vascular lumen area. Scar size was determined by measuring the scar length over the […]. Hypertrophy and vascularisation were visualized via an isolectin-B4/WGA/DAPI staining. Quantification was performed by a person blinded to the treatment protocol.

[3] = MI experiment, female mice, MI/EF-1

neuregulin-1 [NRG1]
time of peak NRG1-induced Akt phosphorylation [1]: 15 min

O=C(NC1CC1)C(Sc1nc2ccccc2c(=O)n1C1CCCC1)c1ccccc1 (stereo not drawn) [EF-1]
effect on DOX-induced increase in cTnI plasma levels (in words) (Erbb4-null mice; female Erbb4-null mice): did not prevent the increase in cTnI plasma levels | In vivo DOX experiment in male+female Erbb4-null mice with EF-1 (cTnI) (Erbb4-null mice; male+female Erbb4-null mice, DOX/EF-1 group, individual animals, Fig. 6d): 3.884 and 54.574 and 87.9141 and 7.084 and 54.129 and 15.8453 and 39.5225 and 62.9332 | number of significantly downregulated genes compared to Veh (HCFs): 507 | number of significantly upregulated genes compared to Veh (HCFs): 336 | In vivo DOX experiment in female wild type mice with EF-1 (cTnI) ([2]; female wild type mice, DOX/EF-1 group, individual animals, Fig. 6b): 8.09 and 3.543 and 6.879 and 1.657 and 7.427 and 2.8057 and 6.224 and 3.861 | effect on DOX-induced increase in circulating cTnI plasma levels (in words) ([2]; female wild type mice, EF-1 2 mg/kg, 7 days, DOX 20 mg/kg IP day 4): significantly prevented the DOX-induced increase in circulating cTnI plasma levels | In vivo DOX experiment in fmale wild type mice with EF-1 (cTnI) ([2]; fmale wild type mice, DOX/EF-1 group, individual animals, Fig. 6c): 273.659 and 148.181 and 198.844 and 244.235 and 228.218 and 232.739 and 226.672 and 236.453 and 259.198 | capillary density (#cap./100 CMs) (mouse model of MI; [3]): 126.379 #cap./100 CMs and 126.085 #cap./100 CMs and 117.771 #cap./100 CMs and 154.255 #cap./100 CMs and 147.06 #cap./100 CMs and 123.257 #cap./100 CMs and 102.661 #cap./100 CMs | capillary density (#cap./area) (mouse model of MI; [3]): 2.749 #cap./area and 3.344 #cap./area and 2.607 #cap./area and 4.068 #cap./area and 3.029 #cap./area and 3.536 #cap./area and 2.904 #cap./area | cardiomyocyte cross-sectional area in MI/EF-1 group (in words) (mouse model of MI; both male and female mice): significant increase in cross-sectional area | interstitial fibrosis in the remote myocardium of the infarcted hearts (in words) (mouse model of MI; female mice): significantly lower | number of capillaries per area (µm²) of the heart in MI/EF-1 group (in words) (mouse model of MI; female mice): marked decrease in number of capillaries per area | scar size (in words) (mouse model of MI; female or male mice): did not affect scar size | half-life with human liver microsomes: > 6 h
